Data as given in PubChem BioAssay (NCI).
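Dose response: 5 concentrations. Exposure: 48 h. Format: 96-well plates. Endpoint: linear interpolation; highest concentration if not reached. TGI is the concentration that stops growth completely.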

Assays:
Test in all cases: NCI-60 cell line screen, 48 h
[1] = tested on: OVCAR-5 ovarian
[2] = tested on: MALME-3M melanoma
[3] = tested on: SNB-75 CNS
[4] = tested on: KM12 colon
[5] = tested on: DLD-1 colon
[6] = tested on: COLO 205 colon
[7] = tested on: HOP-92 NSCLC
[8] = tested on: A498 renal
[9] = tested on: NCI-H522 lung
[10] = tested on: ACHN renal
[11] = tested on: SNB-19 CNS
[12] = tested on: CCRF-CEM leukemia
[13] = tested on: UACC-257 melanoma
[14] = tested on: NCI-H23 lung
[15] = tested on: HCC-2998 colon
[16] = tested on: SNB-78 CNS
[17] = tested on: U251 CNS
[18] = tested on: HCT-116 colon
[19] = tested on: KM20L2 colon
[20] = tested on: SF-539 CNS
[21] = tested on: HT29 colon
[22] = tested on: MOLT-4 leukemia
[23] = tested on: HOP-62 NSCLC
[24] = tested on: UO-31 renal
[25] = tested on: SK-MEL-28 melanoma
[26] = tested on: SW-620 colon
[27] = tested on: RXF-631 renal
[28] = tested on: SF-268 CNS
[29] = tested on: 786-0 renal
[30] = tested on: OVCAR-3 ovarian
[31] = tested on: RXF 393 renal
[32] = tested on: SK-MEL-2 melanoma
[33] = tested on: DMS 114 small cell lung
[34] = tested on: RPMI-8226 leukemia
[35] = tested on: K-562 leukemia
[36] = tested on: DMS 273 small cell lung
[37] = tested on: SK-OV-3 ovarian
[38] = tested on: HL-60(TB) leukemia
[39] = tested on: HOP-18 NSCLC
[40] = tested on: A549 NSCLC
[41] = tested on: TK-10 renal
[42] = tested on: LOX IMVI melanoma
[43] = tested on: OVCAR-8 ovarian
[44] = tested on: IGROV1 ovarian
[45] = tested on: SF-295 CNS
[46] = tested on: NCI-H460 lung
[47] = tested on: LXFL 529 NSCLC
[48] = tested on: EKVX NSCLC
[49] = tested on: SK-MEL-5 melanoma
[50] = tested on: CAKI-1 renal
[51] = tested on: MDA-MB-435
[52] = tested on: MCF7 breast
[53] = tested on: BT-549 breast
[54] = tested on: UACC-62 melanoma
[55] = tested on: OVCAR-4 ovarian
[56] = tested on: PC-3 prostate
[57] = tested on: M19-MEL melanoma
[58] = tested on: NCI/ADR-RES ovarian
[59] = tested on: MDA-MB-231 breast
[60] = tested on: HCT-15 colon
[61] = tested on: SN12C renal
[62] = tested on: HS 578T breast
[63] = tested on: M14 melanoma
[64] = tested on: MDA-N
[65] = tested on: DU-145 prostate
[66] = tested on: SR leukemia
[67] = tested on: NCI-H226 lung
[68] = tested on: T-47D breast

CC(c1ccccc1)N1CC(C)(c2ccccc2)N(O)C(c2ccccc2)C1C (stereo not given)
TGI [1]: > 100 µM
TGI [2]: 66.2 µM
TGI [3]: 55.2 µM
TGI [4]: > 100 µM
TGI [5]: > 100 µM
TGI [6]: 23.7 µM
TGI [7]: 8.36 µM
TGI [8]: 85.3 µM
TGI [9]: 32.3 µM
TGI [10]: 45.4 µM
TGI [11]: > 100 µM
TGI [12]: 31 µM
TGI [13]: 45.1 µM
TGI [14]: 56.8 µM
TGI [15]: 36.9 µM
TGI [16]: 89.9 µM
TGI [17]: 32.7 µM
TGI [18]: 11.6 µM
TGI [19]: 44.7 µM
TGI [20]: 26.5 µM
TGI [21]: > 100 µM
TGI [22]: 29.8 µM
TGI [23]: 38.9 µM
TGI [24]: 10.2 µM
TGI [25]: 21.9 µM
TGI [26]: 68.1 µM
TGI [27]: 82 µM
TGI [28]: 31.3 µM
TGI [29]: 30.2 µM
TGI [30]: 40.8 µM
TGI [31]: 36.8 µM
TGI [32]: 28 µM
TGI [33]: 45.1 µM
TGI [34]: 62.8 µM
TGI [35]: > 100 µM
TGI [36]: > 100 µM
TGI [37]: 87.8 µM
TGI [38]: 13.5 µM
TGI [39]: 51.2 µM
TGI [40]: 37.8 µM
TGI [41]: > 100 µM
TGI [42]: 30.1 µM
TGI [43]: > 100 µM
TGI [44]: > 100 µM
TGI [45]: 37.5 µM
TGI [46]: 27 µM
TGI [47]: 37.3 µM
TGI [48]: 62.1 µM

O=S1(=O)CCN(c2ccccc2CC(c2c[nH]c3ccccc23)c2c[nH]c3ccccc23)CC1
TGI [1]: 54.9 µM
TGI [2]: 43.7 µM
TGI [3]: 23.6 µM
TGI [49]: 19.8 µM
TGI [4]: 13.5 µM
TGI [5]: 21.4 µM
TGI [6]: 8.23 µM
TGI [50]: > 85.2 µM
TGI [51]: > 31.7 µM
TGI [7]: 25.3 µM
TGI [8]: 39.9 µM
TGI [9]: 17.2 µM
TGI [10]: > 91.7 µM
TGI [11]: > 100 µM
TGI [12]: 11.1 µM
TGI [52]: > 100 µM
TGI [53]: 37.3 µM
TGI [54]: 18.9 µM
TGI [55]: > 63.7 µM
TGI [13]: 18 µM
TGI [14]: 22.6 µM
TGI [15]: 8.09 µM
TGI [16]: 74.3 µM
TGI [17]: 24 µM
TGI [18]: 16.5 µM
TGI [19]: 27.8 µM
TGI [56]: 13.2 µM
TGI [20]: 32 µM
TGI [21]: 23.3 µM
TGI [57]: 23 µM
TGI [22]: 8.87 µM
TGI [58]: 38.7 µM
TGI [23]: 35.7 µM
TGI [59]: 25.1 µM
TGI [24]: 72 µM
TGI [25]: 28.8 µM
TGI [26]: 21.1 µM
TGI [28]: 62.2 µM
TGI [60]: 36.3 µM
TGI [29]: 27.8 µM
TGI [30]: 20.9 µM
TGI [31]: 28.8 µM
TGI [61]: 24.1 µM
TGI [62]: 42.7 µM
TGI [32]: 21.1 µM
TGI [63]: 20.5 µM
TGI [33]: > 100 µM
TGI [34]: 5.01 µM
TGI [64]: 18.2 µM
TGI [35]: 45.1 µM
TGI [36]: 37.5 µM
TGI [65]: 35.4 µM
TGI [66]: 20.1 µM
TGI [67]: 42.7 µM
TGI [37]: > 79 µM
TGI [38]: 12.7 µM
TGI [39]: 32.7 µM
TGI [40]: > 78.2 µM
TGI [41]: 19.8 µM
TGI [42]: 11.6 µM
TGI [43]: 39.7 µM
TGI [68]: > 100 µM
TGI [44]: 33.4 µM
TGI [45]: 49.9 µM
TGI [46]: 13 µM
TGI [47]: 25.7 µM
TGI [48]: 55.7 µM
